Results as given in US7892574B2, “Topical administration of oxazolidinones for transdermal delivery” (Pharmacia & Upjohn Company, LLC, priority 1998, dated 2011).

Assays:
Format in all cases: in vivo
acne = assay: Human who has acne treated with an Oxazolidinone ointment; conditions: person, ointment containing 30 mg/ml, topical, twice daily
Method: A Human Who has Acne is Treated with an Oxazolidinone Ointment

otitis media = assay: Human who has an ear infection treated with Oxazolidinone solution; conditions: child, ten drops of solution containing 10 mg/ml into the ear twice daily for ten days; before 10 days
Method: A Human Who has an Ear Infection is Treated with Oxazolidinone Solution
Ten drops of a solution containing 10 mg/ml of (S)-N-[[3-[3-fluoro-4-(4-morpholinyl)phenyl]-2-oxo-5-oxazolidinyl]methyl]acetamide is dropped into the ear twice daily for ten days with an eye dropper and is immediately followed by closing the outer ear canal with cotton.

wound infection = assay: Human with wound infection treated with Oxazolidinone gel; conditions: person, punctured finger, gel containing 1%, twice daily for 10 days
Method: Human with Wound Infection is Treated with Oxazolidinone Gel
A 65 kg person who has a severely swollen and painful finger with a history of having punctured the finger on a rose thorn two days previously is treated by administering a gel containing 1% N-((5S)-3-(3-fluoro-4-(4-(2-fluoroethyl)-3-oxopiperazin-1-yl)phenyl)-2-oxooxazolidin-5-ylmethyl)acetamide twice daily for 10 days. The site of inflammation is kept lightly covered with a sterile bandage following antibiotic therapy.

## CC(=O)NC[C@H]1CN(c2ccc(N3CCN(C(=O)CO)CC3)c(F)c2)C(=O)O1 [Example 1, (S)-N-[[3-[3-Fluoro-4-[4-(hydroxyacetyl)-1-piperazinyl]-phenyl]-2-oxo-5-oxazolidinyl]methyl]acetamide]
acne
  reddened and swollen pustules after administration: greatly reduced

## CC(=O)NC[C@H]1CN(c2ccc(N3CCOCC3)c(F)c2)C(=O)O1 [Example 2, (S)-N-[[3-[3-Fluoro-4-(4-morpholinyl)phenyl]-2-oxo-5-oxazolidinyl]methyl]acetamide]
Otitis media
  fever: the fever is down
  pain: the pain is gone

## CC(=O)NC[C@H]1CN(c2ccc(N3CCN(CCF)C(=O)C3)c(F)c2)C(=O)O1 [Example 4, N-((5S)-3-(3-Fluoro-4-(4-(2-fluoroethyl)-3-oxopiperazin-1-yl)phenyl)-2-oxooxazolidin-5-ylmethyl)acetamide]
Wound infection
  wound healing: The wound heals
